pIC50: −log10 of the molar value.
Molecular target: Protease (Human immunodeficiency virus 1, UniProt Q9YQ12)
Test: Inhibition of HIV1 protease expressed in Escherichia coli using Abz-Ala-Arg-Val-Nle-Tyr(NO2)-Glu-Ala-Nle-NH2 peptide as substrate by FRET assay

Chain of Protease (Q9YQ12 whole entry): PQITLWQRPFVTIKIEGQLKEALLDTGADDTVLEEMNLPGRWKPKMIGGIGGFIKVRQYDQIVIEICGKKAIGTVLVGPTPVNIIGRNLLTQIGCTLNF

Row | pIC50 | SMILES
1 | < 4.30 | CCCCCC(=O)O[C@H]1CC[C@]2(C)[C@H]3CC=C4[C@@H]5CC(C)(C)CC[C@]5(C(=O)NCCCCCCCCCCC(=O)N[C@H](C(=O)O)C(C)C)CC[C@@]4(C)[C@]3(C)CC[C@H]2C1(C)C
2 | < 4.30 | CCC(=O)O[C@H]1CC[C@]2(C)[C@H]3CC=C4[C@@H]5CC(C)(C)CC[C@]5(C(=O)NCCCCCC(=O)O)CC[C@@]4(C)[C@]3(C)CC[C@H]2C1(C)C
3 | < 4.30 | CCCCCC(=O)O[C@H]1CC[C@]2(C)[C@H]3CC=C4[C@@H]5CC(C)(C)CC[C@]5(C(=O)NCCCCCC(=O)O)CC[C@@]4(C)[C@]3(C)CC[C@H]2C1(C)C
4 | < 4.30 | CC1(C)CC[C@]2(C(=O)NCCCCCC(=O)O)CC[C@]3(C)C(=CC[C@@H]4[C@@]5(C)CC[C@H](OC(=O)c6ccccc6)C(C)(C)[C@@H]5CC[C@]43C)[C@@H]2C1
